Experimental data reported in ChEMBL document CHEMBL1132500, “Structure and antimalarial activity of adducts of 11-azaartemisinin with conjugated terminal acetylenes” (Bioorg Med Chem Lett, 1999).
Values after ≈ are worked out from the molar mass of the structure shown.

What was measured:
Plasmodium falciparum [1] = assay: Antimalarial activity against Plasmodium falciparum D6 as IC50 relative to artemisinin; format: functional
Plasmodium falciparum [2] = assay: Antimalarial activity against Plasmodium falciparum W2 clone as relative IC50 to artemisinin; format: functional
Plasmodium falciparum [3] = assay: Inhibitory activity against Plasmodium falciparum W2; format: functional, organism-based
Plasmodium falciparum [4] = assay: Inhibitory activity against Plasmodium falciparum D6; format: functional, organism-based

| SMILES | IC50 ratio (Plasmodium falciparum [1]) | IC50 ratio (Plasmodium falciparum [2]) | IC50 (Plasmodium falciparum [3]) [ng/mL] | IC50 (Plasmodium falciparum [4]) [ng/mL] |
| --- | --- | --- | --- | --- |
| CC(=O)/C=C/N1C(=O)[C@H](C)[C@@H]2CC[C@@H](C)[C@@H]3CC[C@]4(C)OO[C@]32[C@H]1O4 | 2.54 | 1.25 |  |  |
| COC(=O)/C=C/N1C(=O)[C@H](C)[C@@H]2CC[C@@H](C)[C@@H]3CC[C@]4(C)OO[C@]32[C@H]1O4 | 2 | 1.2 |  |  |
| C[C@@H]1CC[C@H]2[C@@H](C)C(=O)N(/C=C/C(=O)N(C)C)[C@@H]3O[C@]4(C)CC[C@@H]1[C@@]23OO4 | 0.39 | 0.35 |  |  |
| C[C@@H]1CC[C@H]2[C@@H](C)C(=O)O[C@@H]3O[C@@]4(C)CC[C@@H]1[C@]32OO4 [ARTEMISININ] |  |  | 1.15 (≈ 4.07 nM) | 4.19 (≈ 14.8 nM) |
